We go through five compounds from ChEMBL document CHEMBL1800049, “Aryl 1,4-diazepane compounds as potent and selective CB2 agonists: optimization of drug-like properties and target independent parameters” (Bioorg Med Chem Lett, 2011).

SMILES strings stand for the structures.

Series [1] in a line: Oral bioavailability in cynomolgus monkey. In kind it is ADME, organism-based, Macaca fascicularis. As to conditions: in vivo.
The nature of series [2]: Permeability from apical to basolateral side of human Caco2 cells at 10 uM after […] by HPLC-MS/MS analysis. Format: ADME, cell-based. As to conditions: Caco-2, read-out: permeability. For orientation: Caco-2 cells form a polarised layer with tight junctions and transporters.
Series [3] can be described thus: Permeability from basolateral to apical side of human Caco2 cells at 10 uM after […] by HPLC-MS/MS analysis. Format: ADME, cell-based. As to conditions: Caco-2, read-out: permeability.

Regarding `CC(C)(C)c1cc(NC(=O)N2CCCN(C(=O)C3CCOCC3)CC2)no1`, in series [1], the bioavailability (as a rule, the share of a dose that reaches the circulation, judged against a reference dose that is usually intravenous) turned out to be 3%. Besides, the Papp A→B at […], 10 µM in series [2] was found to be 7 ×10⁻⁶ cm/s. In addition, the Papp B→A at […], 10 µM in series [3] was 42 ×10⁻⁶ cm/s.

On to `CC(C)(C)c1ccc2oc(N3CCCN(C(=O)C4CCOCC4)CC3)nc2c1`, for which the Papp A→B at […], 10 µM in series [2] stood at 49 ×10⁻⁶ cm/s. In addition, the Papp B→A at […], 10 µM in series [3] was 64 ×10⁻⁶ cm/s.

Turning to `O=C(C1CCOCC1)N1CCCN(c2nc3ccc(Cl)cc3s2)CC1`, the Papp A→B at […], 10 µM in series [2] is 62 ×10⁻⁶ cm/s. The Papp B→A at […], 10 µM in series [3] was 71 ×10⁻⁶ cm/s.

As for `O=C(C1CCOCC1)N1CCCN(c2nc(-c3ccccc3)ns2)CC1`, the Papp A→B at […], 10 µM in series [2] turned out to be 67 ×10⁻⁶ cm/s. The Papp B→A at […], 10 µM in series [3] was 61 ×10⁻⁶ cm/s.

As to `O=C(C1CCOCC1)N1CCCN(c2nc(C(F)(F)F)c(Cl)s2)CC1`, the Papp A→B at […], 10 µM in series [2] was found to be 53 ×10⁻⁶ cm/s. Further, the Papp B→A at […], 10 µM in series [3] amounted to 70 ×10⁻⁶ cm/s.
